This test has as its target SARS-CoV-2 3CLpro (Severe acute respiratory syndrome coronavirus 2, UniProt P0DTD1). The test can be described thus: biochemical. The conditions noted are these: for inhibition at 5 µM: 4 h. Set-up: Replicate_1 / Replicate_2 / mean / mean (LOPAC_screen_w_protease): unit not given here. In kind it is biochemical.
The mark [1] stands for this setting: sheet LOPAC_screen_w_protease, primary screen with protease, 5 µM, mean of two replicates.
Where [2] appears, read: sheet LOPAC_screen_w_protease, primary screen with protease, 5 µM, replicate 1.
Setting [3] is: sheet LOPAC_screen_w_protease, primary screen with protease, 5 µM, replicate 2.
Where [4] appears, read: sheet LOPAC_screen_w_protease, primary screen of LOPAC1280 at 5 µM with protease, mean of the two replicates, read-out: mean.
Setting [5] is: sheet LOPAC_screen_w_protease, primary screen of LOPAC1280 at 5 µM with protease, replicate 1, read-out: Replicate_1.
[6] abbreviates: sheet LOPAC_screen_w_protease, primary screen of LOPAC1280 at 5 µM with protease, replicate 2, read-out: Replicate_2.
Where [7] appears, read: LOPAC1280 primary screen with protease, 5 µM compound, replicate 1, read-out: Replicate_1 (LOPAC_screen_w_protease).
Setting [8] is: LOPAC1280 primary screen with protease, 5 µM compound, replicate 2, read-out: Replicate_2 (LOPAC_screen_w_protease).
Setting [9] is: LOPAC1280 primary screen with protease, 5 µM compound, mean of two replicates.
The mark [10] stands for this setting: sheet LOPAC_screen_w_protease, LOPAC1280 primary screen at 5 µM, with protease, replicate 1.
[11] abbreviates: sheet LOPAC_screen_w_protease, LOPAC1280 primary screen at 5 µM, with protease, replicate 2.
Setting [12] is: LOPAC1280 primary screen with protease, 5 µM compound, mean of the two replicates.
[13] abbreviates: LOPAC1280 primary screen with protease, 5 µM compound, replicate 1.
Setting [14] is: LOPAC1280 primary screen with protease, 5 µM compound, replicate 2.
Where [15] appears, read: sheet LOPAC_screen_w_protease, LOPAC1280 primary screen at 5 µM, with protease, mean of the two replicates, read-out: mean.
[16] abbreviates: sheet LOPAC_screen_w_protease, LOPAC1280 primary screen at 5 µM, with protease, replicate 1, read-out: Replicate_1.
The mark [17] stands for this setting: sheet LOPAC_screen_w_protease, LOPAC1280 primary screen at 5 µM, with protease, replicate 2, read-out: Replicate_2.
[18] abbreviates: sheet LOPAC_screen_w_protease, LOPAC1280 at 5 µM, mean of two replicates, read-out: mean.
[19] abbreviates: sheet LOPAC_screen_w_protease, LOPAC1280 at 5 µM, replicate 1, read-out: Replicate_1.
[20] abbreviates: sheet LOPAC_screen_w_protease, LOPAC1280 at 5 µM, replicate 2, read-out: Replicate_2.
Where [21] appears, read: sheet LOPAC_screen_w_protease, primary screen with protease, compound at 5 µM, mean of two replicates.
Setting [22] is: sheet LOPAC_screen_w_protease, primary screen with protease, compound at 5 µM, replicate 1.
[23] abbreviates: sheet LOPAC_screen_w_protease, primary screen with protease, compound at 5 µM, replicate 2.

These results are taken from article PMC7587356, “High-Throughput Screening for Inhibitors of the SARS-CoV-2 Protease Using a FRET-Biosensor” (Molecules, 2020).

Where a name gives a salt, the structure may show the parent alone. Read-outs that look alike come from different tables or passages of the source. Peptide text beside a SMILES is read from it. * marks the point of attachment. Cbz = O=C(OCc1ccccc1)*

Under setting [1], `Brc1ccc([C@H]2CN3CCSC3=N2)cc1.O=C(O)C(=O)O` [S(-)-p-Bromotetramisole oxalate] yielded a mean of -0.07526. Further, under setting [2], the Replicate_1 came to 0.5493. The compound further yielded a Replicate_2 under setting [3] of -0.6998.

As to `c1ccc2cc(-c3ncc[nH]3)ccc2c1` [Benazoline oxalate], the inhibition at 5 µM under setting [4] is 3.39%, the inhibition at 5 µM under setting [5] came to 1.95% and the inhibition at 5 µM under setting [6] is 4.83%.

On to `COc1ccc2c(c1OC)C(=O)OC2C1c2cc3c(cc2CCN1C)OCO3` (single isomer, unassigned; (+)) [(+)-Hydrastine], for which the inhibition at 5 µM amounted to 2.51% under setting [7] and 0.711% under setting [8]. Under setting [9], the “mean (LOPAC_screen_w_protease)” value turned out to be 1.61.

`COc1ccccc1N1CCN(CCCNc2c(C)c(=O)n(C)c(=O)n2C)CC1` [Urapidil, 5-Methyl-] showed a mean (sheet LOPAC_screen_w_protease, LOPAC1280 primary screen at 5 µM, with protease, mean of two replicates) of -1.384. Under setting [10], this compound gave a Replicate_1 of -1.313. The same compound had a Replicate_2 under setting [11] of -1.455.

In the case of `Cc1nc2sccn2c(=O)c1CCN1CCC(=C(c2ccc(F)cc2)c2ccc(F)cc2)CC1` [Ritanserin], the inhibition at 5 µM under setting [7] was determined as 2.24% and the inhibition at 5 µM under setting [8] was 0.502%. Moreover, the “mean (LOPAC_screen_w_protease)” value under setting [9] was found to be 1.373.

As for `O=C1C=CC(=O)C=C1` [p-Benzoquinone], the “mean (LOPAC_screen_w_protease)” value under setting [12] worked out at 2.118. Also, the “Replicate_1 (LOPAC_screen_w_protease)” value under setting [13] is reported as 1.8862. The “Replicate_2 (LOPAC_screen_w_protease)” value under setting [14] was determined as 2.35.

For the compound `NC(=O)CI` [Iodoacetamide], the “mean (LOPAC screen with protease)” value (sheet LOPAC_screen_w_protease, primary screen at 5 µM, mean of two replicates) was determined as 17.6073. Moreover, under “sheet LOPAC_screen_w_protease, primary screen at 5 µM, replicate 1”, the “Replicate_1 (LOPAC screen with protease)” value stood at 16.5057. Also, for the setting “sheet LOPAC_screen_w_protease, primary screen at 5 µM, replicate 2”, the “Replicate_2 (LOPAC screen with protease)” value is 18.7088.

Compound `FC(F)(F)c1ccccc1-n1ccnc1` [1-[2-(Trifluoromethyl)phenyl]imidazole] returned a mean under setting [1] of -0.5336. The compound further returned a Replicate_1 under setting [2] of 0.8297. Also, under setting [3], the Replicate_2 is -1.897.

For `CNCCC(Oc1ccc(C(F)(F)F)cc1)c1ccccc1` (centres unmarked) [Fluoxetine hydrochloride], the inhibition at 5 µM was 0.474% under setting [15], 2.07% under setting [16] and -1.12% under setting [17].

As to `CC(C)[C@H](NC(=O)OCc1ccccc1)C(=O)N[C@H](C=O)Cc1ccccc1` [MDL 28170] (Cbz-Val-Phe-aldehyde), the inhibition at 5 µM (read-out: Replicate_1 (LOPAC_screen_w_protease)) came to 0.281% and the inhibition at 5 µM (read-out: Replicate_2 (LOPAC_screen_w_protease)) was 3.52%.

Turning to `OCCN1CCN(CCCN2c3ccccc3Sc3ccc(Cl)cc32)CC1` [Perphenazine], the inhibition at 5 µM under setting [18] came to 1.14%, the inhibition at 5 µM under setting [19] amounted to 0.377% and the inhibition at 5 µM under setting [20] turned out to be 1.91%.

Regarding `CC(C)COC(=O)OCN1C(=O)CN(CCN2CC(=O)N(COC(=O)OCC(C)C)C(=O)C2)CC1=O` [Sobuzoxane], the inhibition at 5 µM was 2.23% (sheet LOPAC_screen_w_protease, primary screen with protease, mean of two replicates, read-out: mean); 2.79% (sheet LOPAC_screen_w_protease, primary screen with protease, replicate 1, read-out: Replicate_1); 1.66% (sheet LOPAC_screen_w_protease, primary screen with protease, replicate 2, read-out: Replicate_2).

For the compound `CC(C)C[C@H]1C(=O)N2CCC[C@H]2[C@]2(O)O[C@](NC(=O)[C@@H]3C=C4c5cccc6[nH]c(Br)c(c56)C[C@H]4N(C)C3)(C(C)C)C(=O)N12.CS(=O)(=O)O` [(+)-Bromocriptine methanesulfonate], under setting [12], the “mean (LOPAC_screen_w_protease)” value is given as 1.984. The “Replicate_1 (LOPAC_screen_w_protease)” value under setting [13] stood at 2.405. The “Replicate_2 (LOPAC_screen_w_protease)” value under setting [14] was found to be 1.562.

As to `CN/C(=N\c1ccc(C2=NNC(=O)CC2C)cc1)NC#N` (centres unmarked) [SKF 94836], the inhibition at 5 µM worked out at 0.836% under setting [15], 1.39% under setting [16] and 0.284% under setting [17].

With `CN(C)c1nc(N)c(C(=O)NC(=N)N)nc1Cl` [5-(N,N-Dimethyl)amiloride hydrochloride], the inhibition at 5 µM is 1.67% under setting [7] and 1.33% under setting [8]. The “mean (LOPAC_screen_w_protease)” value under setting [9] is reported as 1.502.

As for `O=C(O)CCC(C(=O)O)N1C(=O)c2ccccc2C1=O` [L-Glutamic acid, N-phthaloyl-], the mean (sheet LOPAC_screen_w_protease, LOPAC1280 at 5 µM, mean of two replicates) was 1.263. This compound also returned a Replicate_1 (sheet LOPAC_screen_w_protease, LOPAC1280 at 5 µM, replicate 1) of 1.846. The Replicate_2 (sheet LOPAC_screen_w_protease, LOPAC1280 at 5 µM, replicate 2) is listed as 0.6803.

For `O=[N+]([O-])c1cccc2cn[nH]c12` [7-Nitroindazole], the inhibition at 5 µM is, setting by setting: (sheet LOPAC_screen_w_protease, primary screen with protease, compound at 5 µM, mean of two replicates, read-out: mean) 3.04%; (sheet LOPAC_screen_w_protease, primary screen with protease, compound at 5 µM, replicate 1, read-out: Replicate_1) 2.19%; (sheet LOPAC_screen_w_protease, primary screen with protease, compound at 5 µM, replicate 2, read-out: Replicate_2) 3.89%.

On to `CCCNCC(O)COc1ccccc1C(=O)CCc1ccccc1` (centres unmarked) [Propafenone hydrochloride], for which the inhibition at 5 µM under setting [4] was determined as 3.27%, the inhibition at 5 µM under setting [5] was determined as 3.05% and the inhibition at 5 µM under setting [6] is 3.48%.

As to `C=C/C(C)=C/[C@@]1(C)SC(=O)C(C)=C1O` [Thiolactomycin], the inhibition at 5 µM (sheet LOPAC_screen_w_protease, LOPAC1280 primary screen with protease, 5 µM compound, mean of the two replicates, read-out: mean) stood at 4.16%; the inhibition at 5 µM (sheet LOPAC_screen_w_protease, LOPAC1280 primary screen with protease, 5 µM compound, replicate 1, read-out: Replicate_1) was found to be 2.88%; the inhibition at 5 µM (sheet LOPAC_screen_w_protease, LOPAC1280 primary screen with protease, 5 µM compound, replicate 2, read-out: Replicate_2) was found to be 5.43%.

For `COc1ccc2c(c1)[C@@]13CCCC[C@H]1[C@@H](C2)NCC3.Cl` [3-Methoxy-morphanin hydrochloride], the Replicate_1 is on record as 3.105, the Replicate_2 was 3.489 and the mean is listed as 3.297.

On to `CC(C)CN(C)c1nc(N)c(C(=O)N=C(N)N)nc1Cl` [5-(N-Methyl-N-isobutyl)amiloride], for which the inhibition at 5 µM was 0.449% under setting [15], 0.238% under setting [16] and 0.66% under setting [17].

Regarding `O=C1Nc2ccc(I)cc2/C1=C/c1cc(Br)c(O)c(Br)c1` [GW5074], the mean (sheet LOPAC_screen_w_protease, LOPAC1280 primary screen with protease, 5 µM compound, mean of the two replicates) is 5.786. Where the note is “sheet LOPAC_screen_w_protease, LOPAC1280 primary screen with protease, 5 µM compound, replicate 1”, this compound showed a Replicate_1 of 6.4599. The compound further came in with a Replicate_2 (sheet LOPAC_screen_w_protease, LOPAC1280 primary screen with protease, 5 µM compound, replicate 2) of 5.112.

Compound `COc1ccc(CCNC[C@H](O)c2ccc(O)cc2)cc1OC` [R(-)-Denopamine] registered a mean under setting [1] of -0.5647. The compound also showed a Replicate_1 under setting [2] of -0.1092. The compound also registered a Replicate_2 under setting [3] of -1.02.

Compound `COc1ccc(CNC(=O)/C=C/c2ccc3[nH]cc(CCN(C)C)c3c2)cc1` [GR 4661] showed a mean (sheet LOPAC_screen_w_protease, LOPAC1280 primary screen at 5 µM, with protease, mean of the two replicates) of 0.4567. Under setting [10], this compound showed a Replicate_1 of 1.411. In addition, the Replicate_2 under setting [11] is listed as -0.4976.

In the case of `CP(=O)(O)CCCN.Cl` [SKF 97541 hydrochloride], the “mean (LOPAC_screen_w_protease)” value under setting [9] came to 1.5203. Under setting [13], the “Replicate_1 (LOPAC_screen_w_protease)” value turned out to be 0.8621. Further, the “Replicate_2 (LOPAC_screen_w_protease)” value under setting [14] was found to be 2.1785.

Compound `COc1ccccc1N1CCN(CCN(C(=O)c2ccc(I)cc2)c2ccccn2)CC1.Cl` [p-MPPI hydrochloride] came in with a mean under setting [21] of 3.1199. This compound also had a Replicate_1 under setting [22] of 5.19. Besides, the Replicate_2 under setting [23] came out at 1.05.

With `O=C(O)c1cccnc1C(=O)O` [Quinolinic acid], the inhibition at 5 µM under setting [15] came to 0.58%, the inhibition at 5 µM under setting [16] was -0.228% and the inhibition at 5 µM under setting [17] was 1.39%.

Regarding `C[C@]12CCC(=O)C=C1CC[C@@H]1[C@@H]2[C@@H](O)C[C@@]2(C)[C@H]1CC[C@]2(O)C(=O)CO` [Hydrocortisone], the inhibition at 5 µM reads like this: under setting [18], 1.15%; under setting [19], 2.23%; under setting [20], 0.0692%.

The compound `Cl.Cn1ccc2cc(NC(=O)Nc3cccnc3)ccc21` [SB 200646 hydrochloride] returned a mean under setting [21] of 2.882. Under setting [22], this compound returned a Replicate_1 of 2.958. Further, the Replicate_2 under setting [23] worked out at 2.805.
